Assay results: PMC11432405, “Development of Novel Alaninamide Derivatives with Anticonvulsant Activity and Favorable Safety Profiles in Animal Models” (International Journal of Molecular Sciences, 2024)
Like-named read-outs stand apart in the source and are kept apart here.

Experiments:
[1] = test system: maximal electroshock (MES) seizures; settings: cited from earlier work; for PI (TD50/ED50) MES: TD50 rotarod / ED50 MES
[2] = test system: 6 Hz (32 mA) seizures; settings: cited from earlier work; for PI (TD50/ED50) 6 Hz: TD50 rotarod / ED50 6 Hz (32 mA)
[3] = test system: 6 Hz (44 mA) seizures; settings: cited from earlier work; for PI (TD50/ED50) 6 Hz (44 mA): TD50 rotarod / ED50 6 Hz (44 mA)
[4] = test system: maximal electroshock (MES) seizures; assay: maximal electroshock seizure (MES) test; assay type: in vivo, mice; settings: for PI (TD50/ED50) MES: TD50 rotarod / ED50 MES; for protection (efficacy) in the MES screening / ED50 MES / MES test: number of mice protected / number of mice tested / ED50 / responders at 100 mg/kg: mice i.p.; for protection (efficacy) in the MES screening: 100 mg/kg, 0.5 h, four mice; for ED50 MES / ED50: TPE 0.5 h, 95% confidence interval in parentheses; for MES test: number of mice protected / number of mice tested / responders at 100 mg/kg: dose of 100 mg/kg, pretreatment time 0.5 h; for ED50 / responders at 100 mg/kg: Mus musculus, ip; for responders at 100 mg/kg: read-out: MES test: number of mice protected / number of mice tested (converted)
Source text: Epilepsy is a multifaceted disorder with often unclear etiology, making it challenging to pinpoint a specific receptor or transporter as the definitive target. Consequently, the discovery of ASMs deviates from the traditional drug development pathway, which typically involves designing a new molecule, docking it with a specific biological target, and performing chemical synthesis, followed by in vitro assays. Instead, numerous animal seizure models, which mirror various types of human epileptic seizures, are initially employed in the process of new ASM discovery. This approach has been instrumental in the identification and introduction into clinical practice of all currently used ASMs and continues to be a cornerstone in the preclinical development of new anticonvulsants. The primary justification for prioritizing in vivo screening over in vitro binding and functional studies is the complex and often not fully elucidated mechanisms of action of known ASMs. This approach also facilitates the discovery of compounds with novel, previously undefined pharmacodynamic properties. In light of this, we evaluated all compounds obtained in the current studies using the MES test, which remains one of the most valuable preclinical screening models for tonic-clonic seizures, as well as partial convulsions with or without secondary generalization in humans. This test allows for a comprehensive assessment of the anticonvulsant efficacy of new ASM candidates and is considered highly relevant for predicting their therapeutic efficacy in human epilepsy. The MES test was carried out in mice following the intraperitoneal (i.p.) administration of a screening dose of 100 mg/kg in a group consisting of four animals. The efficacy of the compounds synthesized was evaluated at 0.5 h pretreatment time.
Fresh solutions were prepared daily for each experimentation session.
Each group consisted of six animals.

[5] = test system: motor coordination; assay: rotarod test (acute neurological toxicity, motor coordination); assay type: in vivo; settings: mice i.p., 0.5 h
Experimental: (§1) The protective indexes (PIs) were then calculated as the ratio of TD50 to ED50 (PI = TD50/ED50), providing an assessment of the therapeutic window for each compound.

[6] = biological target: T1, human recombinant MAO-B (Homo sapiens, UniProt P27338); assay: fluorometric monoamine oxidase B inhibition assay; assay type: biochemical; settings: for % inhibition MAO-B (1 µM): mean of two independent experiments; for inhibition at 1 µM: read-out: % inhibition MAO-B (1 µM), mean of two independent experiments
T1 construct: purchased Sigma Aldrich
T1 sequence (P27338 1-520): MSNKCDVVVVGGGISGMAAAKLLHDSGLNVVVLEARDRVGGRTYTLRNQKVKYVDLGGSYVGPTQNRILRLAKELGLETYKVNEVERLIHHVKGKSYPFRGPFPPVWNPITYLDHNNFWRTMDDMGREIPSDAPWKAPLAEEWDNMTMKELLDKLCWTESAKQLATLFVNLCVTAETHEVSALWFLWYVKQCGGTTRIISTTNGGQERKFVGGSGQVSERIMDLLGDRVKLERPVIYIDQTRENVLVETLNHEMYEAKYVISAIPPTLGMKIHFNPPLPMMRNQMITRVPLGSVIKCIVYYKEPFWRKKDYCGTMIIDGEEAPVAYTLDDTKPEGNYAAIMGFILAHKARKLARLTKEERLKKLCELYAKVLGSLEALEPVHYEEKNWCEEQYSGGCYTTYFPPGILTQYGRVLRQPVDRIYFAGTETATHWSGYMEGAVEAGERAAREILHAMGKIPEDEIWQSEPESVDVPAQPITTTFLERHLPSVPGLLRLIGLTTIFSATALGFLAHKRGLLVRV

[7] = test system: 6 Hz (32 mA) seizures; assay: 6 Hz (32 mA) psychomotor seizure model; settings: for PI (TD50/ED50) 6 Hz: TD50 rotarod / ED50 6 Hz (32 mA); for protection (efficacy) in the 6 Hz (32 mA) screening / ED50 6 Hz (32 mA) / 6 Hz (32 mA) test: number of mice protected / number of mice tested: mice i.p.; for protection (efficacy) in the 6 Hz (32 mA) screening: 100 mg/kg, four mice; for protection (efficacy) in the 6 Hz (32 mA) screening / ED50 / responders at 100 mg/kg: 0.5 h; for ED50 6 Hz (32 mA): TPE 0.5 h, 95% confidence interval in parentheses; for 6 Hz (32 mA) test: number of mice protected / number of mice tested: dose of 100 mg/kg, pretreatment time 0.5 h; for ED50 / responders at 100 mg/kg: Mus musculus, ip; for ED50: read-out: ED50 6 Hz (32 mA), mice i.p., TPE 0.5 h, 95% confidence interval in parentheses; for responders at 100 mg/kg: read-out: protection (efficacy) in the 6 Hz (32 mA) screening;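 on all read-outs here: adult male albino Swiss CD-1 mice, each used once, with compounds suspended in 1% Tween 80 in water as vehicle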
[8] = test system: motor coordination; settings: cited from earlier work
[9] = rotarod test (acute neurological toxicity, motor coordination); assay type: in vivo; settings: male, CD-1 (albino Swiss), mouse, in vivo, ip, mice i.p.
Experimental: as §1

[10] = test system: HepG2 cells; assay: hepatocytotoxicity MTT viability assay; assay type: cell-based, human; settings: 50 µM, 24 h; cell line not specified in the sentence (Figures 2 and 3)
Experimental: To evaluate selected compounds’ hepatocytotoxicity and neurocytotoxicity, a human hepatocellular carcinoma cell line, HepG2 (ATCC® HB-8065™), and a human neuroblastoma cell line, SH-SY5Y (ATCC®, CRL-2266™), were used. Both cell lines were cultured in standard culture conditions (5% CO2, 37 °C, 95% humidity) using Dulbecco′s Modified Eagle′s—Medium (DMEM; Gibco, Thermo Scientific, Waltham, MA, USA) supplemented with 10% (vol/vol) fetal bovine serum (FBS; Gibco, Thermo Scientific, Waltham, MA, USA) and an antibiotic mixture (Penicillin, Streptomycin, Amphotericin B; Gibco, Thermo Scientific, Waltham, MA, USA). Cells were cultured with compounds 5, […], or 39 (1–50 µM) for 24 h and then an MTT (3-(4,5-dimethylthiazol-2-yl)-2,5diphenyltetrazolium bromide, Sigma-Aldrich, St. Louis, MO, USA) viability assay was performed. The formazan crystals were dissolved in DMSO (Sigma-Aldrich, St. Louis, MO, USA), and the absorbance at 570 nm was measured using a microplate reader (SpectraMax® iD3, Molecular Devices, San Jose, CA, USA). The experiment was performed three times in duplicate. Each bar represents the mean (±SEM) percentage of viable cells in comparison to the control (defined as 100% and represented by untreated cells).
Figure 2 The viability of HepG2 cells incubated in the presence of 5, 17, and 39. HepG2 cells were exposed to growing concentrations (1–50 µM) of tested compounds for 24 h. Cell viability was measured using an MTT assay. Bars represent mean percent of cell viability normalized to non-treated cells (100%) ± SEM. The doxorubicin was tested as a positive control.

[11] = mice i.p., TPE 0.5 h (LEV 1.0 h)

SMILES | PI (TD50/ED50) MES [1] | PI (TD50/ED50) 6 Hz [2] | PI (TD50/ED50) 6 Hz (44 mA) [3] | PI (TD50/ED50) MES [4] | protection (efficacy) in the MES screening [4] | MES test: number of mice protected / number of mice tested [4] | TD50 (rotarod test) [5] | % inhibition MAO-B (1 µM) [6] | PI (TD50/ED50) 6 Hz [7] | protection (efficacy) in the 6 Hz (32 mA) screening [7] | ED50 6 Hz (32 mA) [7] | 6 Hz (32 mA) test: number of mice protected / number of mice tested [7] | further results
COC[C@@H](NC(C)=O)C(=O)NCc1ccccc1 [LCS, lacosamide] | 5.0 | 8.8 | 6.7 | – | – | – | – | – | – | – | – | – | ED50 MES ([1]; mice i.p., TPE 0.5 h (LEV 1.0 h), same conditions): 9.2 (8.5–10.0) mg/kg; ED50 6 Hz (32 mA) ([2]; mouse, in vivo, ip): 5.3 (3.5–7.8) mg/kg; ED50 6 Hz (44 mA) [3, 11]: 6.9 (5.4–8.6) mg/kg
CC(C(=O)NCc1ccc(OCc2cccc(F)c2)cc1)N1C(=O)CCC1=O (stereo not drawn) [Compound 7, 2-(2,5-dioxopyrrolidin-1-yl)-N-(4-((3-fluorobenzyl)oxy)benzyl)propanamide] | – | – | – | > 3.8 | ≤ 25% | 1/4 | >300 mg/kg | 0% | > 4.2 | 100% | 71.73 (66.6–77.23) mg/kg | 4/4 | ED50 MES [4]: 78.30 (65.82–93.13) mg/kg
CC(C(=O)NCc1ccc(OCc2ccccc2Cl)cc1)N1C(=O)CCC1=O (stereo not drawn) [Compound 9, N-(4-((2-chlorobenzyl)oxy)benzyl)-2-(2,5-dioxopyrrolidin-1-yl)propanamide] | – | – | – | > 6.3 | 100% | 4/4 | >300 mg/kg | 0% | > 5.2 | 75% | 57.69 (33.98–97.94) mg/kg | 3/4 | –
CC[C@@H](C(N)=O)N1CCCC1=O [LEV, levetiracetam] | – | – | – | – | – | – | – | – | – | – | – | – | TD50 (rotarod test) ([8]; mice i.p., Table 2): >500 mg/kg; TD50 (rotarod test) ([8]; mice i.p., Table 3): >500 mg/kg
C[C@H](C(=O)NCc1ccccc1)N1C(=O)CCC1=O [(R)-AS-1, (R)-N-Benzyl-2-(2,5-Dioxopyrrolidin-1-Yl)Propanamide] | > 7.5 | > 32.0 | >12.0 | – | – | – | – | – | – | – | – | – | TD50 (rotarod test) ([8]; mouse, in vivo, ip): >500 mg/kg
CC(C(=O)NCc1ccc(OCc2ccc(OC(F)(F)F)cc2)cc1)N1CCCC1=O (stereo not drawn) [Compound 39, 2-(2-oxopyrrolidin-1-yl)-N-(4-((4-(trifluoromethoxy)benzyl)oxy)benzyl)propanamide] | – | – | – | < 8.3 | – | – | – | – | < 8.0 | – | – | – | ED50 [4]: 36.2 mg/kg; responders at 100 mg/kg [4]: 100%; TD50 at 0.5 h [9]: < 300 mg/kg; cell viability at higher concentration (MTT) [10]: statistically significant decrease in cell viability; inhibition at 1 µM [6]: 0%; melting point: 103.4 to 103.9 °C; ED50 [7]: 37.3 mg/kg; responders at 100 mg/kg [7]: 100%
C[C@H](NCc1ccc(OCc2cccc(F)c2)cc1)C(N)=O [SAF, safinamide] | – | – | – | – | – | – | – | – | – | – | – | – | ED50 in the MES model ([1]; mice): 4.1 mg/kg
CC(C(=O)NCc1ccc(OCc2cccc(Cl)c2)cc1)N1C(=O)CCC1=O (stereo not drawn) [Compound 10, N-(4-((3-chlorobenzyl)oxy)benzyl)-2-(2,5-dioxopyrrolidin-1-yl)propanamide] | – | – | – | > 5.9 | 100% | 4/4 | >300 mg/kg | 0% | > 5.0 | 75% | 59.31 (45.54–73.08) mg/kg | 3/4 | ED50 MES [4]: 50.87 (45.29–57.13) mg/kg
CCCC(CCC)C(=O)O [VPA, valproic acid] | 1.7 | 3.3 | 2.3 | – | – | – | – | – | – | – | – | – | ED50 6 Hz (32 mA) [2, 11]: 130.6 (117.6–145.2) mg/kg
CC(C(=O)NCc1ccc(OCc2cccc(C(F)(F)F)c2)cc1)N1CCCC1=O (stereo not drawn) [Compound 38, 2-(2-oxopyrrolidin-1-yl)-N-(4-((3-(trifluoromethyl)benzyl)oxy)benzyl)propanamide] | – | – | – | – | – | – | – | – | – | – | – | – | ED50 [4]: 54.8 mg/kg; responders at 100 mg/kg [4]: 100%; TD50 at 0.5 h [9]: > 300 mg/kg; inhibition at 1 µM [6]: 2%; melting point: 123.5 to 123.8 °C; ED50 [7]: 65.3 mg/kg; responders at 100 mg/kg [7]: 75%
